Experimental data: patent US6914045B2, “Glycopeptide antibiotics” (Wyeth Holdings Corporation, priority 2001, dated 2005)

Experiments:
Test in all cases: in vitro antibacterial evaluation, MIC by broth dilution
Assay type in all cases: cell-based
Enterococcus sp. = system: Enterococcus sp.
Summary of the method: (§1)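 MIC = lowest antibiotic concentration preventing visible growth; inoculum 5×10^5 CFU/mL; drug range 64-0.06 μg/mL; Muller-Hinton II […]; NCCLS M7-A2 guidance.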

Escherichia coli = system: Escherichia coli
Summary of the method: as §1

Staphylococcus sp. = details: broth dilution, 18 hours at 35° C.; for MIC Staphylococcus haemolyticus (GC 4546): strain GC 4546; for MIC Coagulase Negative Staphylococcus (GC 4547): strain GC 4547; for MIC Coagulase Negative Staphylococcus (GC 4548): strain GC 4548; for MIC Coagulase Negative Staphylococcus (GC 4549): strain GC 4549; for MIC Coagulase Negative Staphylococcus (GC 4551): strain GC 4551; for MIC Coagulase Negative Staphylococcus (GC 6257): strain GC 6257
Summary of the method: as §1

Streptococcus sp. = system: Streptococcus sp.
Summary of the method: as §1

[1] = Enterococcus avium (GC 4558); broth dilution, 18 hours at 35° C.
[2] = Enterococcus faecalis (ATCC 29212); broth dilution, 18 hours at 35° C.
[3] = Enterococcus faecalis (GC 2242); broth dilution, 18 hours at 35° C.
[4] = Enterococcus faecalis (GC 2691); broth dilution, 18 hours at 35° C.
[5] = Enterococcus faecalis (GC 3059); broth dilution, 18 hours at 35° C.
[6] = Enterococcus faecalis (GC 4552); broth dilution, 18 hours at 35° C.
[7] = Enterococcus faecalis (GC 4553); broth dilution, 18 hours at 35° C.
[8] = Enterococcus faecalis (GC 4554); broth dilution, 18 hours at 35° C.
[9] = Enterococcus faecalis (GC 6189); broth dilution, 18 hours at 35° C.
[10] = Enterococcus faecium (GC 2243); broth dilution, 18 hours at 35° C.
[11] = Enterococcus faecium (GC 4556); broth dilution, 18 hours at 35° C.
[12] = Enterococcus faecium (GC 4557); broth dilution, 18 hours at 35° C.
[13] = inoculum 5×10^5 CFU/mL, strain GC 1131
[14] = Streptococcus agalactiae (GC 4564); broth dilution, 18 hours at 35° C.
[15] = Streptococcus pneumoniae (ATCC 6301); broth dilution, 18 hours at 35° C.
[16] = Streptococcus pneumoniae (GC 1894); broth dilution, 18 hours at 35° C.
[17] = Streptococcus pneumoniae (GC 4565); broth dilution, 18 hours at 35° C.
[18] = Streptococcus pyogenes (GC 4563); broth dilution, 18 hours at 35° C.

CC(c1ccccc1)C1NC(=O)CNC(=O)C(CO)NC(=O)C(C(O)C2CNC(=N)N2C2OC(CO)C(O)C(O)C2O)NC(=O)C(C(O)C2CNC(=N)N2)NC(=O)C(Cc2ccc(OC3OC(CO)C(OC4OC5COC(CC67CC8CC(CC(C8)C6)C7)OC5C(O)C4O)C(O)C3O)cc2)NC1=O (stereo not shown) [Example 129]
<0.06 µg/mL: MIC Streptococcus agalactiae (GC 4564) (Streptococcus sp.; [14]) | MIC Streptococcus pneumoniae (ATCC 6301) (Streptococcus sp.; [15]) | MIC Streptococcus pneumoniae (GC 1894) (Streptococcus sp.; [16]) | MIC Streptococcus pneumoniae (GC 4565) (Streptococcus sp.; [17]) | MIC Streptococcus pyogenes (GC 4563) (Streptococcus sp.; [18]) | MIC Streptococcus pneumoniae (ATCC 6301) (Streptococcus sp.; broth dilution, 18 hours at 35° C.; strain ATCC 6301) | MIC Streptococcus pneumoniae (GC 1894) (Streptococcus sp.; broth dilution, 18 hours at 35° C.; strain GC 1894) | MIC Streptococcus pyogenes (GC 4563) (Streptococcus sp.; broth dilution, 18 hours at 35° C.; strain GC 4563) | MIC Streptococcus agalactiae (GC 4564) (Streptococcus sp.; broth dilution, 18 hours at 35° C.; strain GC 4564) | MIC Streptococcus pneumoniae (GC 4565) (Streptococcus sp.; broth dilution, 18 hours at 35° C.; strain GC 4565)
32 µg/mL: MIC Escherichia coli (ATCC 25922) (Escherichia coli; 18 hours at 35° C., strain ATCC 25922) | MIC Escherichia coli (GC 4559) (Escherichia coli; 18 hours at 35° C., strain GC 4559)
2 µg/mL: MIC Enterococcus avium (GC 4558) (Enterococcus sp.; [1]) | MIC Enterococcus faecalis (ATCC 29212) (Enterococcus sp.; [2]) | MIC Enterococcus faecalis (GC 2242) (Enterococcus sp.; [3]) | MIC Enterococcus faecalis (GC 2691) (Enterococcus sp.; [4]) | MIC Enterococcus faecalis (GC 3059) (Enterococcus sp.; [5]) | MIC Enterococcus faecalis (GC 4552) (Enterococcus sp.; [6]) | MIC Enterococcus faecalis (GC 4553) (Enterococcus sp.; [7]) | MIC Enterococcus faecalis (GC 4554) (Enterococcus sp.; [8]) | MIC Enterococcus faecalis (GC 6189) (Enterococcus sp.; [9]) | MIC Enterococcus faecium (GC 2243) (Enterococcus sp.; [10]) | MIC Enterococcus faecium (GC 4556) (Enterococcus sp.; [11]) | MIC Enterococcus faecium (GC 4557) (Enterococcus sp.; [12]) | MIC Enterococcus faecalis (ATCC 29212) (Enterococcus sp.; broth dilution, 18 hours at 35° C.; strain ATCC 29212) | MIC Enterococcus faecalis (GC 2242) (Enterococcus sp.; broth dilution, 18 hours at 35° C.; strain GC 2242) | MIC Enterococcus faecium (GC 2243) (Enterococcus sp.; broth dilution, 18 hours at 35° C.; strain GC 2243) | MIC Enterococcus faecalis (GC 2691) (Enterococcus sp.; broth dilution, 18 hours at 35° C.; strain GC 2691) | MIC Enterococcus faecalis (GC 3059) (Enterococcus sp.; broth dilution, 18 hours at 35° C.; strain GC 3059) | MIC Enterococcus faecalis (GC 4552) (Enterococcus sp.; broth dilution, 18 hours at 35° C.; strain GC 4552) | MIC Enterococcus faecalis (GC 4553) (Enterococcus sp.; broth dilution, 18 hours at 35° C.; strain GC 4553) | MIC Enterococcus faecalis (GC 4554) (Enterococcus sp.; broth dilution, 18 hours at 35° C.; strain GC 4554) | MIC Enterococcus faecium (GC 4556) (Enterococcus sp.; broth dilution, 18 hours at 35° C.; strain GC 4556) | MIC Enterococcus faecium (GC 4557) (Enterococcus sp.; broth dilution, 18 hours at 35° C.; strain GC 4557) | MIC Enterococcus avium (GC 4558) (Enterococcus sp.; broth dilution, 18 hours at 35° C.; strain GC 4558) | MIC Enterococcus faecalis (GC 6189) (Enterococcus sp.; broth dilution, 18 hours at 35° C.; strain GC 6189) | MIC Escherichia coli (GC 4560) (Escherichia coli; 18 hours at 35° C., strain GC 4560) | MIC Staphylococcus aureus (GC 1131) (Staphylococcus sp.) | MIC Staphylococcus aureus (GC 3051) (Staphylococcus sp.) | MIC Staphylococcus aureus (GC 3053) (Staphylococcus sp.) | MIC Staphylococcus aureus (GC 4541) (Staphylococcus sp.) | MIC Staphylococcus aureus (GC 4542) (Staphylococcus sp.) | MIC Staphylococcus aureus (GC 4544) (Staphylococcus sp.) | MIC Staphylococcus aureus (GC 4545) (Staphylococcus sp.) | MIC Staphylococcus aureus (GC 1131) (Staphylococcus sp.; [13]) | MIC Staphylococcus aureus (GC 3051) (Staphylococcus sp.; strain GC 3051) | MIC Staphylococcus aureus (GC 3053) (Staphylococcus sp.; strain GC 3053) | MIC Staphylococcus aureus (GC 4541) (Staphylococcus sp.; strain GC 4541) | MIC Staphylococcus aureus (GC 4542) (Staphylococcus sp.; strain GC 4542) | MIC Staphylococcus aureus-SMITH (GC 4543) (Staphylococcus sp.; strain GC 4543) | MIC Staphylococcus aureus (GC 4544) (Staphylococcus sp.; strain GC 4544) | MIC Staphylococcus aureus (GC 4545) (Staphylococcus sp.; strain GC 4545) | MIC Staphylococcus haemolyticus (GC 4546) (Staphylococcus sp.) | MIC Coagulase Negative Staphylococcus (GC 4547) (Staphylococcus sp.) | MIC Staphylococcus aureus-SMITH (GC 4543) (Staphylococcus sp.; strain SMITH GC 4543)
1 µg/mL: MIC Coagulase Negative Staphylococcus (GC 4548) (Staphylococcus sp.) | MIC Coagulase Negative Staphylococcus (GC 4549) (Staphylococcus sp.) | MIC Coagulase Negative Staphylococcus (GC 6257) (Staphylococcus sp.)
4 µg/mL: MIC Staphylococcus aureus (ATCC 29213) (Staphylococcus sp.) | MIC Staphylococcus aureus (ATCC 29213) (Staphylococcus sp.; strain ATCC 29213) | MIC Coagulase Negative Staphylococcus (GC 4551) (Staphylococcus sp.)

CCOc1cc(C2OCC3OC(OC4C(CO)OC(Oc5ccc(CC6NC(=O)C(C(C)c7ccccc7)NC(=O)CNC(=O)C(CO)NC(=O)C(C(O)C7CNC(=N)N7C7OC(CO)C(O)C(O)C7O)NC(=O)C(C(O)C7CNC(=N)N7)NC6=O)cc5)C(O)C4O)C(O)C(O)C3O2)ccc1OC (stereo not shown) [Example 152]
>64 µg/mL: MIC Escherichia coli (ATCC 25922) (Escherichia coli; strain ATCC 25922, 18 hours at 35° C.) | MIC Escherichia coli (GC 4559) (Escherichia coli; strain GC 4559, 18 hours at 35° C.)
16 µg/mL: MIC Enterococcus faecium (GC 4557) (Enterococcus sp.; [12]) | MIC Enterococcus faecium (GC 4557) (Enterococcus sp.; strain GC 4557; broth dilution, 18 hours at 35° C.) | MIC Staphylococcus aureus (GC 1131) (Staphylococcus sp.; [13]) | MIC Staphylococcus aureus (ATCC 29213) (Staphylococcus sp.; strain ATCC 29213) | MIC Staphylococcus aureus (GC 1131) (Staphylococcus sp.; strain GC 1131) | MIC Staphylococcus aureus (GC 3051) (Staphylococcus sp.; strain GC 3051) | MIC Staphylococcus aureus (GC 4541) (Staphylococcus sp.; strain GC 4541) | MIC Staphylococcus aureus (GC 4542) (Staphylococcus sp.; strain GC 4542) | MIC Staphylococcus aureus (GC 4544) (Staphylococcus sp.; strain GC 4544) | MIC Coagulase Negative Staphylococcus (GC 4551) (Staphylococcus sp.)
8 µg/mL: MIC Escherichia coli (GC 4560) (Escherichia coli; strain GC 4560, 18 hours at 35° C.) | MIC Staphylococcus aureus-SMITH (GC 4543) (Staphylococcus sp.; strain GC 4543) | MIC Staphylococcus aureus (GC 4545) (Staphylococcus sp.; strain GC 4545) | MIC Staphylococcus haemolyticus (GC 4546) (Staphylococcus sp.) | MIC Coagulase Negative Staphylococcus (GC 4547) (Staphylococcus sp.) | MIC Coagulase Negative Staphylococcus (GC 4548) (Staphylococcus sp.) | MIC Coagulase Negative Staphylococcus (GC 4549) (Staphylococcus sp.) | MIC Coagulase Negative Staphylococcus (GC 6257) (Staphylococcus sp.) | MIC Staphylococcus aureus-SMITH (GC 4543) (Staphylococcus sp.; strain SMITH GC 4543) | MIC Streptococcus agalactiae (GC 4564) (Streptococcus sp.; [14]) | MIC Streptococcus agalactiae (GC 4564) (Streptococcus sp.; strain GC 4564; broth dilution, 18 hours at 35° C.)
2 µg/mL: MIC Streptococcus pneumoniae (ATCC 6301) (Streptococcus sp.; [15]) | MIC Streptococcus pneumoniae (GC 4565) (Streptococcus sp.; [17]) | MIC Streptococcus pneumoniae (ATCC 6301) (Streptococcus sp.; strain ATCC 6301; broth dilution, 18 hours at 35° C.) | MIC Streptococcus pneumoniae (GC 4565) (Streptococcus sp.; strain GC 4565; broth dilution, 18 hours at 35° C.)
32 µg/mL: MIC Enterococcus avium (GC 4558) (Enterococcus sp.; [1]) | MIC Enterococcus faecalis (ATCC 29212) (Enterococcus sp.; [2]) | MIC Enterococcus faecalis (GC 2242) (Enterococcus sp.; [3]) | MIC Enterococcus faecalis (GC 2691) (Enterococcus sp.; [4]) | MIC Enterococcus faecalis (GC 3059) (Enterococcus sp.; [5]) | MIC Enterococcus faecalis (GC 4552) (Enterococcus sp.; [6]) | MIC Enterococcus faecalis (GC 4554) (Enterococcus sp.; [8]) | MIC Enterococcus faecalis (GC 6189) (Enterococcus sp.; [9]) | MIC Enterococcus faecium (GC 2243) (Enterococcus sp.; [10]) | MIC Enterococcus faecium (GC 4556) (Enterococcus sp.; [11]) | MIC Enterococcus faecalis (ATCC 29212) (Enterococcus sp.; strain ATCC 29212; broth dilution, 18 hours at 35° C.) | MIC Enterococcus faecalis (GC 2242) (Enterococcus sp.; strain GC 2242; broth dilution, 18 hours at 35° C.) | MIC Enterococcus faecium (GC 2243) (Enterococcus sp.; strain GC 2243; broth dilution, 18 hours at 35° C.) | MIC Enterococcus faecalis (GC 2691) (Enterococcus sp.; strain GC 2691; broth dilution, 18 hours at 35° C.) | MIC Enterococcus faecalis (GC 3059) (Enterococcus sp.; strain GC 3059; broth dilution, 18 hours at 35° C.) | MIC Enterococcus faecalis (GC 4552) (Enterococcus sp.; strain GC 4552; broth dilution, 18 hours at 35° C.) | MIC Enterococcus faecalis (GC 4554) (Enterococcus sp.; strain GC 4554; broth dilution, 18 hours at 35° C.) | MIC Enterococcus faecium (GC 4556) (Enterococcus sp.; strain GC 4556; broth dilution, 18 hours at 35° C.) | MIC Enterococcus avium (GC 4558) (Enterococcus sp.; strain GC 4558; broth dilution, 18 hours at 35° C.) | MIC Enterococcus faecalis (GC 6189) (Enterococcus sp.; strain GC 6189; broth dilution, 18 hours at 35° C.) | MIC Staphylococcus aureus (GC 3053) (Staphylococcus sp.; strain GC 3053)
0.5 µg/mL: MIC Streptococcus pneumoniae (GC 1894) (Streptococcus sp.; [16]) | MIC Streptococcus pneumoniae (GC 1894) (Streptococcus sp.; strain GC 1894; broth dilution, 18 hours at 35° C.)
4 µg/mL: MIC Streptococcus pyogenes (GC 4563) (Streptococcus sp.; [18]) | MIC Streptococcus pyogenes (GC 4563) (Streptococcus sp.; strain GC 4563; broth dilution, 18 hours at 35° C.)
64 µg/mL: MIC Enterococcus faecalis (GC 4553) (Enterococcus sp.; [7]) | MIC Enterococcus faecalis (GC 4553) (Enterococcus sp.; strain GC 4553; broth dilution, 18 hours at 35° C.)
